Assays:
M0 macrophages (hMDMs) = experiment: Dosage response of cell shape change on M0 macrophages; format: cell-based, human
[1] = system: hMDMs differentiated into M2 by IL-4 plus IL-13; settings: differentiated macrophages;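 further: human monocyte-derived macrophages held 24 h in 5 ng/mL IL-4 plus IL-13 before 24 h compound exposure, with cell shape measured from images in 384-well plates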
Procedure: (§1) Shown are comparison of Z-scores between 5 μM or 10 μM of compounds. […] Shown are comparison of Z-scores between 5 μM or 10 μM of compounds. […] EC and fitness of 21 M1-polarizing (triangle) and 19 M2-polarizing compounds (circle) were calculated by the Michaelis-Menten equation and plotted. Data were summarized from 3 independent experiments.
(§2) Human macrophages were seeded into optical 384-well plates. Sixteen hours later, medium in M1 plates were replaced by M1 differentiating medium (complete RPMI with 50 ng/mL IFNγ and 50 ng/mL TNFα) and medium in M2 plates by M2 differentiating medium (complete RPMI with 5 ng/mL IL-4 and 5 ng/mL IL-13). After 24 hrs cell differentiation, M1 plates (M1 macrophages) and M2 plates (M2 macrophages) were treated with M2-activating compounds and M1-activating compounds respectively for 24 hrs. Two independent experiments were performed with or without replacing differentiating medium right before treatment. Cell imaging and analysis were performed as indicated above.
(§3) To investigate whether the identified compounds could reprogram or reactivate macrophages after M1- or M2-like differentiation, we rescreened the hits on M1- or M2-activated macrophages. hMDMs were activated into M2-like macrophages by IL-4 plus IL-13 or M1-like macrophages by IFNγ plus TNFα. After removing the differentiating cytokines, M2-like macrophages were treated with each of the 166 M1-activating compounds and M1-like macrophages were treated with each of the 180 M2-activating compounds at a final concentration of either 5 μM and 10 μM. 24 hours later, cell images were taken and cell shapes were quantified. […] Dosage responses were carried out with 40 commercial available compounds (21 M1-activating and 19 M2-activating) on polarized macrophages.
(§4) We also rescreened the hits on differentiated macrophages in the presence of differentiating cytokines: either IL-4 plus IL-13 or IFNγ plus TNFα.

[2] = system: hMDMs differentiated into M2 by IL-4 plus IL-13; experiment: Reprogramming screen and dosage response on M2-like differentiated macrophages; settings: Homo sapiens, Macrophage, 24 h, read-out: EC;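 further: human monocyte-derived macrophages held 24 h in 5 ng/mL IL-4 plus IL-13 before 24 h compound exposure, with cell shape measured from images in 384-well plates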
Procedure: as §1, §2, §3, §4

[3] = system: bone marrow derived macrophages (BMDMs); experiment: Seahorse ECAR (glycolysis) in BMDMs; format: cell-based, mouse; settings: macrophages, NOX inhibition
Procedure: FIGS. 21A-21I show DPI stimulates glycolysis through GPR3 and β-arrestin2. FIGS. 21A-21B show DPI-stimulated glycolysis is independent of the NOX activity. […] The mean fluorescence intensity (MFI) of 2-NBDG in cells was measured by flow cytometry and normalized to DMSO controls of wildtype BMDMs. Data are presented as the mean±sd (n=3). […] ImKCs were transfected with siRNA specific for Gpr3 or a scramble siRNA as control. […] Data are presented as the mean±sd (n=4). […] Data are presented as the mean±sd (n=12). […] Abbr2^−/− ImKC were constructed by CRISPR-Cas9-mediated gene editing. […] Data are presented as the mean±sd (n=4). […]
Specific parameters for glycolytic capacity and glycolytic reserve were calculated and summarized based on two independent experiments. […]
FIGS. 29A-29B show comparison of DPI's effect on glycolysis in wild-type and Pkm^−/− BMDMs. […] ImKCs were treated with DMSO or DPI alone (500 nM) or DPI plus ERK1/2 inhibitor (SCH772984, […]) for 6 hrs and the enzymatic activities of PKM2 (c) and GAPDH (d) were measured by colorimetric assay kits (Biovision). […]
OCR and ECAR were measured in isolated tissues or cultured ImKCs using the Seahorse XFe Extracellular Flux Analyzer (Agilent). […] Glucose levels were determined using a glucose (GO) assay kit (Sigma). […] Lactate levels were determined using a lactate assay kit (Eton Bioscience). […]

PKM2 = experiment: PKM enzymatic activity (colorimetric kit) in treated ImKCs; format: cell-based, mouse; settings: ERK1/2 phosphorylation inhibited
Procedure: Data are presented as the mean±sd (n=4). […] Data are presented as the mean±sd (n=6).
FIGS. 29A-29B show comparison of DPI's effect on glycolysis in wild-type and Pkm^−/− BMDMs. […] FIGS. 29C-29D show activation of PKM2 and GAPDH enzymatic activity by DPI is inhibited by ERK1/2 inhibitor. ImKCs were treated with DMSO or DPI alone (500 nM) or DPI plus ERK1/2 inhibitor (SCH772984, […]) for 6 hrs and the enzymatic activities of PKM2 (c) and GAPDH (d) were measured by colorimetric assay kits (Biovision). Data are presented as the mean±sd (n=6).
The enzymatic activities of PKM and GAPDH were measured using the pyruvate kinase activity assay kit (Biovision, #K709) and GAPDH activity assay kit (Biovision, #K680) according to the manufacturer's protocols, respectively.

Row | Structure (SMILES) | Max absolute Z-value (M0 macrophages (hMDMs)) | Category (M0 macrophages (hMDMs); M0 macrophages) | Category [1] | EC (M1 Z-score cutoff) [2] [µM] | basal level of glycolytic activity [3] | DPI's effect on PKM2 enzymatic activity (PKM2)
1 | CCCCCCCCc1ccc(CCC(N)(CO)CO)cc1 [FTY720] | −11.58 | M1 (−4 for M1-activated macrophages) | M1 (−4 for M1-activated macrophages) | 0.131 | – | –
2 | COc1cc(C(C)=O)ccc1O [apocynin] | – | – | – | – | significantly reduced | abolished
